Patent publication US20230391725A1, “MODULATORS OF THE INTEGRATED STRESS RESPONSE PATHWAY” (Evotec International GmbH, priority 2020, published 2023)

tested on: ATF4; experiment: HEK-ATF4 High Content Imaging assay (prevention of Tunicamycin induced ISR); type: cell-based; conditions: Homo sapiens, Wild-type HEK293 cells, 6 h incubation, ATF4 signal ratio between nucleus and cytoplasm
Description: Example compounds were tested in the HEK-ATF4 High Content Imaging assay to assess their pharmacological potency to prevent Tunicamycin induced ISR. Wild-type HEK293 cells were plated in 384-well imaging assay plates at a density of 12,000 cells per well in growth medium (containing DMEM/F12, 10% FBS, 2 mM L-Glutamine, 100 U/mL Penicillin—100 μg/mL Streptomycin) and incubated at 37° C., 5% CO2. 24 h later, the medium was changed to 50 μL assay medium per well (DMEM/F12, 0.3% FBS, 2mM L-Glutamine, 100 U/mL Penicillin—100 μg/mL Streptomycin). Example compounds were serially diluted in DMSO, spotted into intermediate plates and prediluted with assay medium containing 3.3 […] Tunicamycin to give an 11-fold excess of final assay concentration. In addition to the example compound testing area, the plates also contained multiples of control wells for assay normalization purposes, wells containing Tunicamycin but no example compounds (High control), as well as wells containing neither example compound nor Tunicamycin (Low control). The assay was started by transferring 5 μL from the intermediate plate into the assay plates, followed by incubation for 6 h at 37° C., 5% CO2. Subsequently, cells were fixed (4% PFA in PBS, 20 min at r.t.) and submitted to indirect ATF4 immunofluorescence staining (primary antibody rabbit anti ATF4, clone D4B8, Cell Signaling Technologies; secondary antibody Alexa Fluor 488 goat anti-rabbit IgG (H+L), Thermofisher Scientific). Nuclei were stained using Hoechst dye (Thermofisher Scientific), and plates were imaged on an Opera Phenix High Content imaging platform equipped with 405 nm and 488 nm excitation. Finally, images were analyzed using script based algorithms. The main readout HEK-ATF4 monitored the ATF4 signal ratio between nucleus and cytoplasm. Tunicamycin induced an increase in the overall ATF4 ratio signal, which was prevented by ISR modulating example compounds. In addition, HEK-CellCount readout was derived from counting the number of stained nuclei corresponding to healthy cells. This readout served as an internal toxicity control.

Structure (SMILES) | IC50
O=C(COc1ccc(Cl)c(F)c1)N[C@H]1CC[C@H](C(=O)N[C@H]2C[C@@H](OC(F)(F)F)C2)NC1 [Example 27, (2R,5S)-5-[2-(4-chloro-3-fluorophenoxy)acetamido]-N-[(1s,3s)-3-(trifluoromethoxy)cyclobutyl]piperidine-2-carboxamide] | 500 to 2000 nM
Cc1cc(C)cc(NC(=O)[C@H]2CC[C@H](NC(=O)COc3ccc(Cl)c(F)c3)CN2)c1 [Example 28, (2R,5S)-5-[2-(4-chloro-3-fluorophenoxy)acetamido]-N-(3,5-dimethylphenyl)piperidine-2-carboxamide] | 2000 to 15000 nM
O=C(COc1ccc(Cl)c(F)c1)N[C@H]1CC[C@H](C(=O)NCCCCC(F)(F)F)NC1 [Example 29, (2R,5S)-5-[2-(4-chloro-3-fluorophenoxy)acetamido]-N-(5,5,5-trifluoropentyl)piperidine-2-carboxamide] | 2000 to 15000 nM
O=C(COc1ccc(Cl)c(F)c1)N[C@H]1CC[C@H](C(=O)Nc2cccc(OC(F)F)c2)NC1 [Example 30, (2R,5S)-5-[2-(4-chloro-3-fluorophenoxy)acetamido]-N-[3-(difluoromethoxy)phenyl]piperidine-2-carboxamide] | 500 to 2000 nM
O=C(COc1ccc(Cl)c(F)c1)N[C@@H]1CC[C@@H](C(=O)Nc2cccc(C(F)(F)F)c2)NC1 [Example 31, (2S,5R)-5-[2-(4-chloro-3-fluorophenoxy)acetamido]-N-[3-(trifluoromethyl)phenyl]piperidine-2-carboxamide] | 1 to 500 nM
O=C(COc1ccc(Cl)c(F)c1)N[C@H]1CC[C@H](C(=O)Nc2cc(C(F)(F)F)cc(C(F)(F)F)c2)NC1 [Example 33, (2R,5S)-N-[3,5-bis(trifluoromethyl)phenyl]-5-[2-(4-chloro-3-fluorophenoxy)acetamido]piperidine-2-carboxamide] | 500 to 2000 nM
O=C(COc1ccc(Cl)c(F)c1)N[C@H]1CC[C@H](C(=O)Nc2ccn(C(F)(F)F)n2)NC1 [Example 34, (2R,5S)-5-[2-(4-chloro-3-fluorophenoxy)acetamido]-N-[1-(trifluoromethyl)-1H-pyrazol-3-yl]piperidine-2-carboxamide] | 500 to 2000 nM
O=C(COc1ccc(Cl)c(F)c1)N[C@H]1CC[C@H](C(=O)Nc2cc(C(F)(F)F)ccc2F)NC1 [Example 35, (2R,5S)-5-[2-(4-chloro-3-fluorophenoxy)acetamido]-N-[2-fluoro-5-(trifluoromethyl)phenyl]piperidine-2-carboxamide] | 500 to 2000 nM
O=C(COc1ccc(Cl)c(F)c1)N[C@H]1CC[C@H](C(=O)Nc2cccc(C(F)(F)F)c2F)NC1 [Example 36, (2R,5S)-5-[2-(4-chloro-3-fluorophenoxy)acetamido]-N-[2-fluoro-3-(trifluoromethyl)phenyl]piperidine-2-carboxamide] | 1 to 500 nM
O=C(COc1ccc(Cl)c(F)c1)N[C@H]1CC[C@H](C(=O)Nc2cccc(OC(F)(F)F)n2)NC1 [Example 37, (2R,5S)-5-[2-(4-chloro-3-fluorophenoxy)acetamido]-N-[6-(trifluoromethoxy)pyridin-2-yl]piperidine-2-carboxamide] | 1 to 500 nM
O=C(COc1ccc(Cl)c(F)c1)N[C@H]1CC[C@H](C(=O)Nc2cc(C(F)(F)F)ccn2)NC1 [Example 38, (2R,5S)-5-[2-(4-chloro-3-fluorophenoxy)acetamido]-N-[4-(trifluoromethyl)pyridin-2-yl]piperidine-2-carboxamide] | 500 to 2000 nM
O=C(COc1ccc(Cl)c(F)c1)N[C@H]1CC[C@H](C(=O)Nc2ccc3c(c2)OC(F)(F)O3)NC1 [Example 39, (2R,5S)-5-[2-(4-chloro-3-fluorophenoxy)acetamido]-N-(2,2-difluoro-2H-1,3-benzodioxol-5-yl)piperidine-2-carboxamide] | 1 to 500 nM
O=C(COc1ccc(Cl)c(F)c1)N[C@H]1CC[C@H](C(=O)N2Cc3ccc(C(F)(F)F)cc3C2)NC1 [Example 40, 2-(4-chloro-3-fluorophenoxy)-N-[(3S,6R)-6-[5-(trifluoromethyl)-2,3-dihydro-1H-isoindole-2-carbonyl]piperidin-3-yl]acetamide] | 1 to 500 nM
O=C(COc1ccc(Cl)c(F)c1)N[C@H]1CC[C@H](C(=O)N2Cc3ccc(OC(F)(F)F)cc3C2)NC1 [Example 41, 2-(4-chloro-3-fluorophenoxy)-N-[(3S,6R)-6-[5-(trifluoromethoxy)-2,3-dihydro-1H-isoindole-2-carbonyl]piperidin-3-yl]acetamide] | 1 to 500 nM

Other lines, results leading:

IC50 | Structure (SMILES)
1 to 500 nM | Cn1nc(CNC(=O)[C@H]2CC[C@H](NC(=O)COc3ccc(Cl)c(F)c3)CN2)cc1C(F)(F)F [Example 42, (2R,5S)-5-[2-(4-chloro-3-fluorophenoxy)acetamido]-N-{[1-methyl-5-(trifluoromethyl)-1H-pyrazol-3-yl]methyl}piperidine-2-carboxamide]
500 to 2000 nM | O=C(COc1ccc(Cl)c(F)c1)N[C@H]1CC[C@H](C(=O)NCc2cc(C(F)(F)F)on2)NC1 [Example 43, (2R,5S)-5-[2-(4-chloro-3-fluorophenoxy)acetamido]-N-{[5-(trifluoromethyl)-1,2-oxazol-3-yl]methyl}piperidine-2-carboxamide]
2000 to 15000 nM | O=C(COc1ccc(Cl)c(F)c1)N[C@H]1CC[C@H](C(=O)NCc2cc(C(F)(F)F)ccn2)NC1 [Example 44, (2R,5S)-5-[2-(4-chloro-3-fluorophenoxy)acetamido]-N-{[4-(trifluoromethyl)pyridin-2-yl]methyl}piperidine-2-carboxamide]
2000 to 15000 nM | O=C(COc1ccc(Cl)c(F)c1)N[C@H]1CC[C@H](C(=O)N2CCc3c2cccc3C(F)(F)F)NC1 [Example 45, 2-(4-chloro-3-fluorophenoxy)-N-[(3S,6R)-6-[4-(trifluoromethyl)-2,3-dihydro-1H-indole-1-carbonyl]piperidin-3-yl]acetamide]
2000 to 15000 nM | O=C(COc1ccc(Cl)c(F)c1)N[C@H]1CC[C@H](C(=O)Nc2ccn(C3CC3(F)F)n2)NC1 (stereo partly drawn) [Example 46, (2R,5S)-5-[2-(4-chloro-3-fluorophenoxy)acetamido]-N-[1-(2,2-difluorocyclopropyl)-1H-pyrazol-3-yl]piperidine-2-carboxamide]
500 to 2000 nM | O=C(COc1ccc(Cl)c(F)c1)N[C@H]1CC[C@H](C(=O)NC2CCC(OC(F)(F)F)C2)NC1 (stereo partly drawn) [Example 47, (2R,5S)-5-[2-(4-chloro-3-fluorophenoxy)acetamido]-N-[3-(trifluoromethoxy)cyclopentyl]piperidine-2-carboxamide]
1 to 500 nM | O=C(COc1ccc(Cl)c(F)c1)N[C@H]1CC[C@H](C(=O)Nc2ccnc(C(F)(F)F)n2)NC1 [Example 49, (2R,5S)-5-[2-(4-chloro-3-fluorophenoxy)acetamido]-N-[2-(trifluoromethyl)pyrimidin-4-yl]piperidine-2-carboxamide]
1 to 500 nM | O=C(COc1ccc(Cl)c(F)c1)N[C@H]1CC[C@H](C(=O)Nc2cncc(C(F)(F)F)n2)NC1 [Example 51, (2R,5S)-5-[2-(4-chloro-3-fluorophenoxy)acetamido]-N-[6-(trifluoromethyl)pyrazin-2-yl]piperidine-2-carboxamide]
1 to 500 nM | CN1C[C@@H](NC(=O)COc2ccc(Cl)c(F)c2)CC[C@@H]1C(=O)Nc1cncc(C(F)(F)F)n1 [Example 52, (2R,5S)-5-[2-(4-chloro-3-fluorophenoxy)acetamido]-1-methyl-N-[6-(trifluoromethyl)pyrazin-2-yl]piperidine-2-carboxamide]
